Source: the OPERA property sets (Mansouri et al. 2018)
Peptide text beside a SMILES is read from it. * marks the point of attachment. Cbz = O=C(OCc1ccccc1)*

Compound | logP
CC1CCCN(N=O)C1=O (centres undefined) | -0.66
CSc1ncnc2c1ccn2C1OC(CO)C(O)C1O (centres undefined) | 0.09
CC(Cl)C(=O)N(CC(=O)Nc1ccccc1)c1ccccc1 (centres undefined) | 3.02
CCC(C)N=C=S (centres undefined) | 2.81
CN(CCO)C1=C(N2CC2)C(=O)C(N(C)CCO)=C(N2CC2)C1=O | -0.37
CC(=O)Nc1ccc(C(C)=O)cc1 | 1.24
CC1=C(C(=O)O)N2C(=O)C(NC(=O)C(O)c3ccccc3)C2SC1 (centres undefined) | 0.46
O=C(Nc1ccc(Cl)c(Cl)c1)C1CCCCC1 | 4.72
CCNCC(F)(F)F | 0.74
CCCC1CC(C(=O)NC(C(C)O)C2OC(SC)C(O)C(O)C2O)N(CC)C1 (centres undefined) | 1.02
Cc1c2ccncc2cc2c1[nH]c1ccccc12 | 4.06
CC(=O)Nc1ccc(Oc2ccccc2)cc1 | 3.13
O=C(O)c1ccccc1-c1ccccc1C(=O)O | 2.07
CC1(C)OCCO1 | 0.46
O=C(CN(C(=O)C(Cl)Cl)c1ccccc1)Nc1ccccc1 | 2.96
C#CCCC(=O)N(C)c1ccc(S(=O)(=O)N(C)C)cc1 | 0.88
CN(Cc1ccccc1)N=Nc1[nH]cnc1C(N)=O | 1.54
CCOc1cc(Cc2cnc(N)nc2N)cc(OCC)c1 | 2.52
COC(=O)c1ccccc1NC(C)=O | 1.65
O=[N+]([O-])c1ccc(/C=C/c2cccc(CO)n2)o1 | 1.37

Compound | logP
CN(C)C(=S)NCc1ccccc1 | 1.59
O=C(Nc1ccc(Cl)c(Cl)c1)C1CCCC1 | 4.47
CCN(CC)c1c(C)n(-c2ccccc2)c(=O)n(C)c1=O | 2.19
O=C(Nc1ccccc1)c1ccc(C(=O)Nc2ccccc2)cc1 | 3.72
O=C(O)Cc1n[nH]oc1=O | -1.66
O=c1[nH]cc(I)c(=O)[nH]1 | 0.04
CC(=O)Nc1ccc(C(F)(F)F)cc1 | 2.52
O=C(O)c1ccc[nH]1 | 0.85
O=NN1CCCCC1=O | -1.05
CN=C=S | 0.94
CN(Cc1ccccc1)N=Nc1ccc(C(=O)O)cc1 | 4.04
CC(C)Cn1c(=O)n(C)c(=O)c2[nH]cnc21 | 1.15
CC(C)(NC(=O)N(CCCl)N=O)C(=O)O | 1.74
FC(F)(F)CN(CC(F)(F)F)c1ccccc1 | 3.69
CCCC1CC(C(=O)NC(C(C)Cl)C2OC(SC)C(O)C(O)C2O)N(CC)C1 (centres undefined) | 2.51
NC(=O)c1nc[nH]c1N=NN(CCO)Cc1ccccc1 | 0.99
CC1=Nc2ccc(I)cc2S(=O)(=O)N1 | 1.61
CCC(=O)OCCOc1ccc(C=NO)cc1OC | 1.52
CC(C)C(NC(=O)OCc1ccccc1)C(=O)NC(Cc1ccc(O)cc1)C(=O)O (stereo not drawn) (Cbz-Val-Tyr-OH; configuration not given here) | 2.43
CCC1OC(=O)C(C)C(OC2CC(C)(OC)C(O)C(C)O2)C(C)C(OC2OC(C)C(O)C(N(C)C)C2O)C(C)(O)CC(C)C(=O)C(C)C(O)C1(C)O (centres undefined) | 1.44

Compound | logP
N#CN=Nc1ccccc1 | 2.3
CC(=O)Nc1ccccc1NC(C)=O | -0.03
O=C(O)c1ccco1 | 0.64
Nc1nc(N)c2ncn(COCCO)c2n1 | -1.06
O=CC(CO)OC(C=O)n1cnc2c(O)ncnc21 (centres undefined) | -2.11
O=NN(CCCl)C(=O)NC1CCC(NC(=O)N(CCCl)N=O)CC1 (centres undefined) | 2.74
CC(=O)Nc1ccc(C(C)(C)C)cc1 | 3.05
O=C1c2ccccc2C(=O)C1(O)O | 0.67
O=C1CN=C(c2ccc[nH]2)c2cc(Cl)ccc2N1 | 2.59
Cc1nnc(SCc2ccccc2)s1 | 2.35
Cc1oc2cc(OCC#N)ccc2c(=O)c1C | 1.96
CCCC(=O)Nc1ccc(Cl)c(Cl)c1 | 3.77
CC(C)S(=O)(=O)n1c(N)nc2ccc(/C(=N/O)c3ccccc3)cc21 | 3.1
COC(=O)c1cccc(NC(C)=O)c1 | 1.46
Cc1c(N(C)C)c(=O)n(C)c(=O)n1C | 0.99
NC(=O)c1ncccc1O | 0.65
c1cc2n(n1)CCN2 | -0.25
O=C1C=CC(=NCl)C=C1 | 1.26
CCOC(=O)CCC(=O)N(C)c1cccc(S(=O)(=O)N(C)C)c1 | 0.84
